The results in this text go back to patent publication US20200172529A1, “Chemical Compound, Pharmaceutical Composition Thereof, and Use and Application Thereof” (Beijing Hanmi Pharm. Co., Ltd., priority 2017, published 2020).

What all share (assay type): biochemical
Experiment [1] deals with JAK1 kinase (Homo sapiens, UniProt P23458). Kind of experiment: Inhibition assay of JAK1 kinase activity (ADP-Glo Kinase Assay). From the text: Inhibition assay of JAK1 kinase activity: the method in ADP-Glo™ Kinase Assay (Promega, V9102) was used to determine the inhibitory activity of the test compounds against JAK1 kinase.
Experiment [2] has as its target T1, JAK3 kinase (Homo sapiens, UniProt P52333).
T1 sequence (P52333 1-1124): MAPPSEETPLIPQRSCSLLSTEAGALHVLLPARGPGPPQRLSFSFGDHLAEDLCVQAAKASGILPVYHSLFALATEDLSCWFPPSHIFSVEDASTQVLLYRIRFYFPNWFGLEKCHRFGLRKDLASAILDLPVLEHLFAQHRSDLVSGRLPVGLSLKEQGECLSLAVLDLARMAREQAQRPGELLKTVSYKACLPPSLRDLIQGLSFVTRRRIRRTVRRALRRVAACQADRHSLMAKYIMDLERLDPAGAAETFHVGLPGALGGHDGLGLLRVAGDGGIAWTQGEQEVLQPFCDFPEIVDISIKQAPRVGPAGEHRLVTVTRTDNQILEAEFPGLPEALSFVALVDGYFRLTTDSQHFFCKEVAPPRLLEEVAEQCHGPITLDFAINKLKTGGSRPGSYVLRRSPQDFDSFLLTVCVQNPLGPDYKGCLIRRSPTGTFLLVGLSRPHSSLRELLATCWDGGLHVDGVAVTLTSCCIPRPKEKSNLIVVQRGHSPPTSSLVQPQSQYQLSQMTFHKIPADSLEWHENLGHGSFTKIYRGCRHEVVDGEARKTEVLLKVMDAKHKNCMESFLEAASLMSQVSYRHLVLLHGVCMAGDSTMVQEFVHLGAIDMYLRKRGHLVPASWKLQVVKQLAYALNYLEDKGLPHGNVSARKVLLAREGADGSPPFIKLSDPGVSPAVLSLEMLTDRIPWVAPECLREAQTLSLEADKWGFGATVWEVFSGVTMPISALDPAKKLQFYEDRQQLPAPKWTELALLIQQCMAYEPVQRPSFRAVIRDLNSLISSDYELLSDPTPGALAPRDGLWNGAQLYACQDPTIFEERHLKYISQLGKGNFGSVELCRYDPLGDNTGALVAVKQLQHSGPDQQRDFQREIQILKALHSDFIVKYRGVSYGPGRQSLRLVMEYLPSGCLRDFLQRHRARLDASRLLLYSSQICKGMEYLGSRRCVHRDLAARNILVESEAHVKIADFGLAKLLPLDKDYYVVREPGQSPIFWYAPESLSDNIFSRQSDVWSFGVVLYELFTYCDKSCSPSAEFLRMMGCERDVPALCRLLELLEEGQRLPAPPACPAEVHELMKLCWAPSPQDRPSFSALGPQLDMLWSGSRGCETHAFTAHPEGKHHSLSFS
Kind of experiment: Inhibition assay of JAK3 kinase activity (ADP-Glo Kinase Assay). From the text:
Inhibition assay of JAK3 kinase activity: the method in ADP-Glo™ Kinase Assay (Promega, V9102) was used to determine the inhibitory activity of the test compounds against JAK3 kinase.

Experiment [3] concerns the target T2, TYK2 kinase (Homo sapiens, UniProt P29597).
T2 construct: purchased Life Technologies PR8440C
The experiment in a line: Inhibition assay of TYK2 kinase activity (ADP-Glo Kinase Assay). Here is the method:
Determination of inhibition of TYK2 kinase activity by the examples compounds disclosed herein
Inhibition assay of TYK2 kinase activity: the method of ADP-Glo™ Kinase Assay (Promega, V9102) was used to determine the inhibitory activity of the test compounds against TYK2 kinase.
TYK2 kinase (purchased from Life Technologies, article number: PR8440C) was diluted to the 2-fold final concentration (0.8 ng/mL) using reaction buffer (40 mM Tris-HCl, pH 7.5; 20 mM MgCl2; 0.1 mg/mL BSA; 1 mM DTT), and added to a 384-well plate at 5 μL/well. The test drugs were subjected to a 10-fold gradient dilution, from 10 μM, to obtain 6 concentrations, and added to experimental wells of the 384-well plate at 2.5 μL/well. 5 μL of water and 2.5 μL of buffer were added to negative control wells. 5 μL of TYK2 and 2.5 μL of water were added to positive control wells. After incubating for 10 minutes at room temperature, the substrate ATP and polyE4Y1 (Sigma, P0275) were added at 2.5 μL/well, mixed well, and then reacted at room temperature for 60 minutes. After the reaction was completed, the kinase activity was detected according to the instruction of the kit. First, the ADP-Glo reaction reagent was added at 10 μL/well, mixed well, and reacted at room temperature for 40 minutes. The kinase detection reagent was then added at 20 μL/well, mixed well, and then reacted at room temperature for 30 minutes. The detection was then performed and the IC50s of test drugs were calculated.

The target in experiment [4] is JAK2 kinase (Homo sapiens, UniProt O60674). The experiment in a line: Inhibition assay of JAK2 kinase activity (ADP-Glo Kinase Assay). From the text: Inhibition assay of JAK2 kinase activity: the method in ADP-Glo™ Kinase Assay (Promega, V9102) was used to determine the inhibitory activity of the test compounds against JAK2 kinase.
Chain of JAK2 kinase (O60674 whole entry): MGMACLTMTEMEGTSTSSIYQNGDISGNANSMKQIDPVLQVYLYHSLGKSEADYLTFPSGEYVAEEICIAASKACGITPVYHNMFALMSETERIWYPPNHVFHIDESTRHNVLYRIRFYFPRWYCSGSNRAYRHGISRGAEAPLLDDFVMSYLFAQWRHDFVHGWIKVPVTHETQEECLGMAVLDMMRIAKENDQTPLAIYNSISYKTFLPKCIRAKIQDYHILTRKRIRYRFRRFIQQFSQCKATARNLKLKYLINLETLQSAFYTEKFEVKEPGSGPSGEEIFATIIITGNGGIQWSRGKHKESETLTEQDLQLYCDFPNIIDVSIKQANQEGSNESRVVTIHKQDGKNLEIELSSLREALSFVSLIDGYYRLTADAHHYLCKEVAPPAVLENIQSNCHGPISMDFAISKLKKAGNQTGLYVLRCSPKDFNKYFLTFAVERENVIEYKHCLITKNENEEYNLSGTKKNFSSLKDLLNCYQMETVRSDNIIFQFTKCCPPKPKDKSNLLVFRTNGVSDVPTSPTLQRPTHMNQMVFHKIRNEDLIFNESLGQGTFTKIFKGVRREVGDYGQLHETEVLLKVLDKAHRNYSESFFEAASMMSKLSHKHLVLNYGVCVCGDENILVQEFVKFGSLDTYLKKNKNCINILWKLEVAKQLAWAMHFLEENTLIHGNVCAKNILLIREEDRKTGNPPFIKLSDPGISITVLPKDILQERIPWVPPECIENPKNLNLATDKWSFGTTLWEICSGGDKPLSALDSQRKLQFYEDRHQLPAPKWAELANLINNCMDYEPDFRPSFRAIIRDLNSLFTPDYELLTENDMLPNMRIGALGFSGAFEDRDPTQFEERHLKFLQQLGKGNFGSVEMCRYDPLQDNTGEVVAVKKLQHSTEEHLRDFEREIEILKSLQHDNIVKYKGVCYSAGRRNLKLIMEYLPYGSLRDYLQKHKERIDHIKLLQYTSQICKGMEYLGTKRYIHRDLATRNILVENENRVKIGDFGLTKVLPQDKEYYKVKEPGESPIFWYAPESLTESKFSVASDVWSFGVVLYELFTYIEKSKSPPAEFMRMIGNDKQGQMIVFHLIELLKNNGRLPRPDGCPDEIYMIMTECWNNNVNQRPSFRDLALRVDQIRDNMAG

Chain of JAK1 kinase (P23458 whole entry): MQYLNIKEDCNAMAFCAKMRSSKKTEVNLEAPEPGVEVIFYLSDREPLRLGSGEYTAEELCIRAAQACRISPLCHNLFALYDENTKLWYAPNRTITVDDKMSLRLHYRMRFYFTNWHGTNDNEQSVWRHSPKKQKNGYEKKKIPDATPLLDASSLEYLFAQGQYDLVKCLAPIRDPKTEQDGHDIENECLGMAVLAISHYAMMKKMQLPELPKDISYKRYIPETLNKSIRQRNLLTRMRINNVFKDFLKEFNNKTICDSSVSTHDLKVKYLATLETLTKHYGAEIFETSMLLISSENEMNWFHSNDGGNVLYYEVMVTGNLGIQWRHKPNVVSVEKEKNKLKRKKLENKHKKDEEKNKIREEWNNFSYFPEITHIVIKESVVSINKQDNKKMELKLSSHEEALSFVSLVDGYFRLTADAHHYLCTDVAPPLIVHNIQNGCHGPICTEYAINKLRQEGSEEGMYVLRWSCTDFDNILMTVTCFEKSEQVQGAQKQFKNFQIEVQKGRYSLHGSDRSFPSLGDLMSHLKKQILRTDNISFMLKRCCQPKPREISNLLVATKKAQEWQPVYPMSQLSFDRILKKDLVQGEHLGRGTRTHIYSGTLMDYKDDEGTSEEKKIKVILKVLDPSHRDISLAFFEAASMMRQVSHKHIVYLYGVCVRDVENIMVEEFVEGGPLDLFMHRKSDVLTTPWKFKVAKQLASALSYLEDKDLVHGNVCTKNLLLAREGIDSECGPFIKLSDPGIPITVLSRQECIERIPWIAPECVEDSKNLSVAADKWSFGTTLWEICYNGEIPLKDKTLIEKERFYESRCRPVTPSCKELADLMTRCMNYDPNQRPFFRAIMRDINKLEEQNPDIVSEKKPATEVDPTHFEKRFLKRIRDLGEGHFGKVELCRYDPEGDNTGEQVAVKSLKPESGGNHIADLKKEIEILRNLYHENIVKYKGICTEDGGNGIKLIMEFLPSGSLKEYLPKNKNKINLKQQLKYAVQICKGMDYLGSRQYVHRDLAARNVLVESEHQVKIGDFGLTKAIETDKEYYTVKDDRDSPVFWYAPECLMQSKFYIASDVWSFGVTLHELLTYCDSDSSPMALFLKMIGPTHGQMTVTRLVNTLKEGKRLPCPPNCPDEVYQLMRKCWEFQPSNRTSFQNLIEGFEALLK
T2 sequence (P29597 whole entry): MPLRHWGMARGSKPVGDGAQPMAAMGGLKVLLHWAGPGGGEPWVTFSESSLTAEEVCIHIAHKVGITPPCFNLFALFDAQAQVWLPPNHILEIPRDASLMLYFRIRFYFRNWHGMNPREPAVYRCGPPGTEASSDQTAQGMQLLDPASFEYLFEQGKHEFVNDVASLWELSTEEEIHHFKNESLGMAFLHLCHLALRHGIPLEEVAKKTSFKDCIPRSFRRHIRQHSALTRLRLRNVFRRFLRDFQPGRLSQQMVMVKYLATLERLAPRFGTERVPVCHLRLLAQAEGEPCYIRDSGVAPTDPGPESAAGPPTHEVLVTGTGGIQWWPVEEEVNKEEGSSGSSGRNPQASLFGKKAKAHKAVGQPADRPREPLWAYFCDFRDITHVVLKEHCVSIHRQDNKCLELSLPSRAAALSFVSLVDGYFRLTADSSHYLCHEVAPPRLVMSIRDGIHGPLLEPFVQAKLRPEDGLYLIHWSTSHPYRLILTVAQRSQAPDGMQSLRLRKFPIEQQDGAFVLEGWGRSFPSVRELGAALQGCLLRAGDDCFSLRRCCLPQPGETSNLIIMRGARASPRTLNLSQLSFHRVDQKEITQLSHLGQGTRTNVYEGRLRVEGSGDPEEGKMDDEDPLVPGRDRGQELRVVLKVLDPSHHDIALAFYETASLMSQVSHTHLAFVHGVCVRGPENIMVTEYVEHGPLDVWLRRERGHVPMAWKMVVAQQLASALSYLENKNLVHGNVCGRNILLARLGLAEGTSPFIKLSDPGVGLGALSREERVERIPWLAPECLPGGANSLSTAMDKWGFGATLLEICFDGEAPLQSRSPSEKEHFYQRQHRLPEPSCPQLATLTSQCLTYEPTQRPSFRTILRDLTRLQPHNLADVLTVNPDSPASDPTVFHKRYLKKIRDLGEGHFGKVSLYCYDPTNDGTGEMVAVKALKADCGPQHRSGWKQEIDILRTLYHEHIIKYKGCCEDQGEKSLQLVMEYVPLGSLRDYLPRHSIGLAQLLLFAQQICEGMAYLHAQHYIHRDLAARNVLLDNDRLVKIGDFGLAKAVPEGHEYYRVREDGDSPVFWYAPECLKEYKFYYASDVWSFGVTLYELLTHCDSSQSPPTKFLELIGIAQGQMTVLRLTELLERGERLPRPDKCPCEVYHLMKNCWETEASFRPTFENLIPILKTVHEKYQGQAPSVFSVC

In the case of `NC(=O)c1cnc(Nc2ccc3c(c2)NC[C@H](O)CO3)nc1NCCN1CCOCC1` [Example 61, 4-((2-morpholinoethyl)amino)-2-(((S)-2,3,4,5-tetrahydro-3-hydroxybenzo[b][1,4]oxazepin-7-yl)amino)pyrimidin-5-carboxamide], the IC50 in experiment [1] is 10 to 100 nM; in experiment [2], 10 to 100 nM; in experiment [3], < 10 nM; in experiment [4], 10 to 100 nM.
As for `NC(=O)c1cnc(Nc2ccc3c(c2)NC[C@H](O)CO3)nc1NC1C2CC3CC1CC(O)(C3)C2` (stereo partly drawn) [Example 38, 4-((1-hydroxyadamantan-4-yl)amino)-2-(((S)-2,3,4,5-tetrahydro-3-hydroxybenzo[b][1,4]oxazepin-7-yl)amino)pyrimidin-5-carboxamide], the IC50 in experiment [1], in experiment [2], in experiment [3] and in experiment [4] was < 10 nM throughout.
For the compound `NC(=O)c1cnc(Nc2ccc3c(c2)NC[C@H](O)CO3)nc1NC1CCOC1` (stereo partly drawn) [Example 64, 4-(tetrahydrofuran-3-ylamino)-2-(((S)-2,3,4,5-tetrahydro-3-hydroxybenzo[b][1,4]oxazepin-7-yl)amino)pyrimidin-5-carboxamide], the IC50 in experiment [1] was 10 to 100 nM; in experiment [2], 10 to 100 nM; in experiment [3] it was < 10 nM; in experiment [4] it was 10 to 100 nM.
As for `CCCO[C@H]1CNc2cc(Nc3ncc(C(N)=O)c(NC4CC4)n3)ccc2OC1` [Example 82, 4-(cyclopropylamino)-2-(((S)-2,3,4,5-tetrahydro-3-propoxybenzo[b][1,4]oxazepin-7-yl)amino)pyrimidin-5-carboxamide], the IC50 is < 10 nM in experiment [1], 10 to 100 nM in experiment [2], < 10 nM in experiment [3] and 10 to 100 nM in experiment [4].
Take `CC(C)(C)OCCO[C@H]1CNc2cc(Nc3ncc(C(N)=O)c(NC4CC4)n3)ccc2OC1` [Example 103, 4-(cyclopropylamino)-2-(((S)-2,3,4,5-tetrahydro-3-(2-(tert-butoxy)ethoxy)benzo[b][1,4]oxazepin-7-yl)amino)pyrimidin-5-carboxamide]: the IC50 in experiment [1] is < 10 nM; in experiment [2] it was 10 to 100 nM; in experiment [3], < 10 nM; in experiment [4], 10 to 100 nM.
For `NC(=O)c1cnc(Nc2ccc3c(c2)NC[C@H](O)CO3)nc1NCC1CCC1` [Example 56, 4-((cyclobutylmethyl)amino)-2-(((S)-2,3,4,5-tetrahydro-3-hydroxybenzo[b][1,4]oxazepin-7-yl)amino)pyrimidin-5-carboxamide], the IC50 in experiment [1], in experiment [2], in experiment [3] and in experiment [4] was < 10 nM throughout.
In the case of `NC(=O)c1cnc(Nc2ccc3c(c2)NCC(O)CO3)nc1NC1CC1` (stereo not drawn) [Example 2, 4-(cyclopropylamino)-2-((3-hydroxy-2,3,4,5-tetrahydro-benzo[b][1,4]oxazepin-7-yl)amino)pyrimidin-5-carboxamide], the IC50 is < 10 nM in experiment [1], < 10 nM in experiment [2], < 10 nM in experiment [3] and 10 to 100 nM in experiment [4].
In the case of `CC(C)(C)Nc1nc(Nc2ccc3c(c2)NC[C@H](O)CO3)ncc1C(N)=O` [Example 53, 4-(tert-butylamino)-2-(((S)-2,3,4,5-tetrahydro-3-hydroxybenzo[b][1,4]oxazepin-7-yl)amino)pyrimidin-5-carboxamide], the IC50 in experiment [1] is 10 to 100 nM; in experiment [2], 10 to 100 nM; in experiment [3] it was < 10 nM; in experiment [4] it was 10 to 100 nM.
As for `NC(=O)c1cnc(Nc2ccc3c(c2)NC[C@H](O)CO3)nc1NC1CC(F)(F)C1` [Example 54, 4-((3,3-difluorocyclobutyl)amino)-2-(((S)-2,3,4,5-tetrahydro-3-hydroxybenzo[b][1,4]oxazepin-7-yl)amino)pyrimidin-5-carboxamide], the IC50 in experiment [1] was 10 to 100 nM; in experiment [2], 10 to 100 nM; in experiment [3] it was < 10 nM; in experiment [4] it was 10 to 100 nM.
On to `NC(=O)c1cnc(Nc2ccc3c(c2)NC[C@H](O)CO3)nc1NCC1CCCCC1` [Example 50, 4-((cyclohexylmethyl)amino)-2-(((S)-2,3,4,5-tetrahydro-3-hydroxybenzo[b][1,4]oxazepin-7-yl)amino)pyrimidin-5-carboxamide], for which the IC50 was 10 to 100 nM in experiment [1], < 10 nM in experiment [2], < 10 nM in experiment [3] and < 10 nM in experiment [4].
On to `NC(=O)c1cnc(Nc2ccc3c(c2)NCCCO3)nc1NC1CC1` [Example 77, 4-(cyclopropylamino)-2-((2,3,4,5-tetrahydrobenzo[b][1,4]oxazepin-7-yl)amino)pyrimidin-5-carboxamide], for which the IC50 in experiment [2] is 10 to 100 nM; in experiment [3], < 10 nM.
For the compound `NC(=O)c1cnc(Nc2ccc3c(c2)NC[C@H](O)CO3)nc1NC12CC3CC(C1)C(O)C(C3)C2` (stereo partly drawn) [Example 49, 4-((4-hydroxyadamantan-1-yl)amino)-2-(((S)-2,3,4,5-tetrahydro-3-hydroxybenzo[b][1,4]oxazepin-7-yl)amino)pyrimidin-5-carboxamide], the concentration for half-maximal inhibition (IC50) in experiment [1], in experiment [3] and in experiment [4] was < 10 nM each time.
Take `CO[C@H]1CNc2cc(Nc3ncc(C(N)=O)c(NC4CC4)n3)ccc2OC1` [Example 27, (S)-4-(cyclopropylamino)-2-((3-methoxy-2,3,45-tetrahydro-benzo[b][1,4]oxazepin-7-yl)amino)pyrimidin-5-carboxamide]: the IC50 in experiment [1] was < 10 nM; in experiment [3] it was < 10 nM; in experiment [4], 10 to 100 nM.
`NC(=O)c1cnc(Nc2ccc3c(c2)NC[C@H](O)CO3)nc1NCCCCO` [Example 48, 4-((4-hydroxybutyl)amino)-2-(((S)-2,3,4,5-tetrahydro-3-hydroxybenzo[b][1,4]oxazepin-7-yl)amino)pyrimidin-5-carboxamide]: the IC50 in experiment [1], in experiment [3] and in experiment [4] was < 10 nM each time.
Regarding `NC(=O)c1cnc(Nc2ccc3c(c2)NCC(O)CO3)nc1NCc1ccccc1` (stereo not drawn) [Example 9, 4-(benzylamino)-2-((3-hydroxy-2,3,4,5-tetrahydro-benzo[b][1,4]oxazepin-7-yl)amino)pyrimidin-5-carboxamide], the IC50 was < 10 nM in experiment [1], < 10 nM in experiment [3] and 10 to 100 nM in experiment [4].
Take `CCCCO[C@H]1CNc2cc(Nc3ncc(C(N)=O)c(NC4CC4)n3)ccc2OC1` [Example 81, 4-(cyclopropylamino)-2-(((S)-2,3,4,5-tetrahydro-3-butoxybenzo[b][1,4]oxazepin-7-yl)amino)pyrimidin-5-carboxamide]: the 50% inhibitory concentration (IC50) is 10 to 100 nM in experiment [1], 10 to 100 nM in experiment [2] and < 10 nM in experiment [3].
Turning to `NC(=O)c1cnc(Nc2ccc3c(c2)NC[C@H](O)CO3)nc1NC1CC1` [Example 26, (S)-4-(cyclopropylamino)-2-((3-hydroxy-2,3,4,5-tetrahydro-benzo[b][1,4]oxazepin-7-yl)amino)pyrimidin-5-carboxamide], the IC50 in experiment [1], in experiment [3] and in experiment [4] was < 10 nM each time.
